{"source": "patent US20240299373A1", "about": "“IMPROVED USE OF TRADIPITANT IN MOTION SICKNESS” (Vanda Pharmaceuticals Inc., priority 2023, published 2024)", "key": {"motion sickness": {"test_system": "motion sickness", "experiment": "Clinical study of motion sickness prevention during sea travel", "assay_type": "in vivo, human", "conditions": "for study participants experiencing vomiting: tradipitant arm 170 mg", "experimental": "A randomized, double blind, placebo-controlled clinical study of motion sickness is conducted, in which 126 human subjects (“study participants”), each having a prior history of motion sickness, are subjected to sea travel in the Pacific Ocean under varied weather conditions. Study participants are distributed over seven (7) four-hour boat trips off the coast of Los Angeles, California, USA. For each trip, sea conditions and participant self-evaluation of symptoms of motion sickness are recorded. Among the seven trips, three are under “rough” sea conditions, conducive to producing motion sickness with wave heights above one meter. The remaining four trips are made under “calm” conditions, with wave heights less than one meter, and are less likely to produce motion sickness. Under “rough” sea conditions, 72.2% of the placebo treated patients experience vomiting compared to only 26.7% under “calm” conditions. Subjects are randomized 1:1 to receive either tradipitant 170 mg or placebo by mouth in a blinded fashion, prior to travel initiation. Participants report their symptoms at predetermined time intervals of every 30 minutes during the travel period using the Motion Sickness Severity Scale (MSSS) and other assessments. Primary end points of the study include: percentage of participants vomiting, and Motion Sickness Severity Scale (MSSS) Worst score. The MSSS is a 7 point scale ranging from 0 (“no symptoms”) to 6 (“vomiting”). An exploratory analysis is also performed to evaluate the effects of tradipitant under “calm” and “rough” seas. In the study described above in Example 3, further analysis is conducted with respect to study participants' ethnic backgrounds, in particular, whether study participants are Hispanic or non-Hispanic, e.g., white (non-Hispanic), Black or African American (non-Hispanic), American Indian and Alaska Native (non-Hispanic), Asian (non-Hispanic), Native Hawaiian and other Pacific Islander (non-Hispanic), some other race (non-Hispanic), or multi-racial (non-Hispanic). Results are analyzed based on study participants' self-reported ethnic backgrounds."}, "NK-1 receptor": {"target": "T1, NK-1 receptor (Cavia porcellus, UniProt P30547)", "T1 construct": "potency and CNS penetration of NK-1 antagonists in the guinea pig; from tissue; host or cells: brain of living Dunkin/Hartley guinea pigs", "T1 sequence (P30547 whole entry)": "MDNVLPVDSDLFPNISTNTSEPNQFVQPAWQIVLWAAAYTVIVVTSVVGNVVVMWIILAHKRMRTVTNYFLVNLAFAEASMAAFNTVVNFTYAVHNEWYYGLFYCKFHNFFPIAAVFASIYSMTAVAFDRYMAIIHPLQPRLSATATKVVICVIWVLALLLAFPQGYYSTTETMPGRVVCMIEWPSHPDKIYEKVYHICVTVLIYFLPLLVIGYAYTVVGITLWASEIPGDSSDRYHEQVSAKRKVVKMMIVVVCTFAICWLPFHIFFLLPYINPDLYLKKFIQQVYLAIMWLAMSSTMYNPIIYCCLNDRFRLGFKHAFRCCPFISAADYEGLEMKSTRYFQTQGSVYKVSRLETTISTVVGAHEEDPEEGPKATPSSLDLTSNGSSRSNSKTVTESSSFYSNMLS", "experiment": "GR73632-induced vocalization in guinea pigs", "assay_type": "in vivo", "conditions": "guinea pig", "experimental": "When introduced into the brain, the NK-1 receptor agonist substance P (SP) elicits distress vocalizations in the guinea pig that can be inhibited by NK-1 antagonists.\nMale Dunkin/Hartley guinea pigs (200 to 250 grams) are orally administered either vehicle or an NK-1 antagonist. Approximately 45 minutes later (for dose response studies), the animals are anesthetized and 0.1 nmol of GR73632 (SP analog) in a vehicle volume of 5 μl is injected into the cerebral ventricle at the intersection of bregma and the midline of the skull. Animals are placed in a dark testing chamber located inside of a sound attenuation cubicle and vocalizations are recorded for 30 minutes following recovery from anesthesia. The time spent vocalizing is quantified for each animal. In the duration of action study, 0.1 mg/kg of tradipitant or vehicle solution is administered orally and then 2, 4, or 7 hours later, 0.1 nmol of GR73632 is administered into the cerebral ventricle as described above. Vocalizations are recorded and quantified as indicated above. Vehicle solutions are either CMC (FIG. 4 data) or an ethanol/emulphor solution (FIGS. 5 and 6). Data is analyzed using one-tailed t-tests."}, "[1]": {"test_system": "apomorphine-induced emesis", "experiment": "Emetic challenge study (apomorphine-induced emesis) in beagle dogs", "assay_type": "in vivo, beagle dog", "conditions": "for Total No. Emetic Episodes: apomorphine 0.1 mg/kg iv 2 hours later, five dogs, APO control 28", "experimental": "Over the five (5) weeks of the study, each animal receives each of the treatments, but only one per week. The purpose of this study is to determine if tradipitant suppresses apomorphine-induced emesis.\nThe mid dose of tradipitant is the approximate half-log interval between the low and high doses.\nAll animals are dosed over a period of five (5) weeks, with each dog receiving one of five different treatments on each day of dosing.\nAll dogs are fasted overnight prior to each treatment day and then fed approximately one (1) hour after oral dosing (approximately one (1) hour prior to administration of apomorphine). Individual doses are adjusted weekly for changes in body weight.\nThe dose regimen consists of a 5×5 Latin square design, in which each subject receives 1 dose or dose combination per week (6 day washout) as shown in Table 3 below."}, "[2]": {"experiment": "Plasma concentration 2 hours post-dose in beagle dogs", "assay_type": "in vivo", "conditions": "Dog 1-5", "experimental": "All animals are dosed over a period of five (5) weeks, with each dog receiving one of five different treatments on each day of dosing. […] In cases where apomorphine is administered alone, without prior treatment with tradipitant or aprepitant, apomorphine is given at approximately the same time as when given in combination with tradipitant or aprepitant."}, "[3]": {"test_system": "small bowel transit and gastric emptying", "experiment": "Clinical study of gastrointestinal motility (gamma scintigraphy)", "assay_type": "in vivo, human", "conditions": "healthy subjects, 20 mg or 200 mg single oral dose; study underpowered for this parameter", "experimental": "A single-center, randomized, double-blind, placebo-controlled study is conducted to investigate the effect of tradipitant on small bowel transit time. A total of 15 healthy subjects, including 12 men and 3 women between the ages of 19 and 63 years, are enrolled in the study and receive at least 1 dose of study medication. A total of 13 subjects complete the study. Subjects are randomized to receive 20 mg of tradipitant, 200 mg of tradipitant, or placebo as a single oral dose within each of 3 periods, co-administered with a capsule radiolabeled with a maximum of 1MBq ^111In. Four hours post-dose, all subjects also receive a second capsule radiolabeled with a maximum of 4MBq ^99mTc. Each subject receives all 3 doses during the study. For all dosing regimens, in vivo gamma scintigraphic studies are performed at predetermined intervals, and the following scintigraphic parameters are analyzed: onset and completion of gastric emptying, onset and completion of colon arrival, initiation and completion of small bowel transit, and initial and complete disintegration of the capsule (anatomical location and time)."}}, "note": "Values joined by “and” are separate entries in the source; they are usually repeats but may differ in a detail not shown here. Equal values may be shown once. Marks after values point to notes of the source that are not given here.", "data": [{"smiles": "O=C(c1ccccc1Cl)c1cccnc1-c1nnn(Cc2cc(C(F)(F)F)cc(C(F)(F)F)c2)c1-c1ccncc1", "note": "[Tradipitant, {2-[1-(3,5-bistrifluoromethylbenzyl)-5-pyridin-4-yl-1H-[1,2,3]triazol-4-yl]-pyridin-3-yl}-(2-chlorophenyl)-methanone]", "values": [{"measurement": "% Vomiting, Difference placebo vs tradipitant", "setting": "motion sickness; Calm Sea, P-value 0.3123", "result": 8.5, "unit": "%"}, {"measurement": "Worst MSSS, Difference placebo vs tradipitant", "setting": "motion sickness; Calm Sea, P-value 0.8271", "result": "−0.09"}, {"measurement": "Worst MSSS", "setting": "motion sickness; Calm Sea, n = 44, 170 mg by mouth, placebo 3.32", "result": 3.4}, {"measurement": "Worst MSSS", "setting": "motion sickness; Calm Sea, n = 44, 170 mg by mouth, placebo 3.32, listed as tradipitant", "result": 3.40}, {"measurement": "% Vomiting", "setting": "motion sickness; Calm Sea, n = 44, 170 mg by mouth, placebo 26.7%", "result": 18.2, "unit": "%"}, {"measurement": "% Vomiting", "setting": "motion sickness; Calm Sea, n = 44, 170 mg by mouth, placebo 26.7%, listed as tradipitant", "result": 18.2, "unit": "%"}, {"measurement": "study participants experiencing vomiting", "setting": "motion sickness; Hispanic participants, placebo 33.3%", "result": 4.5, "unit": "%"}, {"measurement": "% Vomiting, Difference placebo vs tradipitant", "setting": "motion sickness; ITT, P-value 0.0039", "result": 22.2, "unit": "%"}, {"measurement": "Worst MSSS, Difference placebo vs tradipitant", "setting": "motion sickness; ITT, P-value 0.2936", "result": 0.35}, {"measurement": "Worst MSSS", "setting": "motion sickness; ITT, n = 63, 170 mg by mouth, placebo 3.75", "result": 3.40}, {"measurement": "Worst MSSS", "setting": "motion sickness; ITT, n = 63, 170 mg by mouth, placebo 3.75, listed as tradipitant", "result": 3.4}, {"measurement": "% Vomiting", "setting": "motion sickness; ITT, n = 63, 170 mg by mouth, placebo 39.7%", "result": 17.5, "unit": "%"}, {"measurement": "% Vomiting", "setting": "motion sickness; ITT, n = 63, 170 mg by mouth, placebo 39.7%, listed as tradipitant", "result": 17.5, "unit": "%"}, {"measurement": "% Vomiting, Difference placebo vs tradipitant", "setting": "motion sickness; Rough Sea, P-value 0.0009", "result": 56.4, "unit": "%"}, {"measurement": "Worst MSSS, Difference placebo vs tradipitant", "setting": "motion sickness; Rough Sea, P-value 0.0235", "result": 1.38}, {"measurement": "Worst MSSS", "setting": "motion sickness; Rough Sea, n = 19, 170 mg by mouth, placebo 4.57", "result": 3.19}, {"measurement": "% Vomiting", "setting": "motion sickness; Rough Sea, n = 19, 170 mg by mouth, placebo 72.2%", "result": 15.8, "unit": "%"}, {"measurement": "% Vomiting", "setting": "motion sickness; Rough Sea, n = 19, 170 mg by mouth, placebo 72.2%, listed as tradipitant", "result": 15.8, "unit": "%"}, {"measurement": "study participants experiencing vomiting", "setting": "motion sickness; non-Hispanic participants, placebo 42.8%", "result": 24.4, "unit": "%"}, {"measurement": "suppression of agonist-induced vocalization", "setting": "NK-1 receptor; 0.1 mg/kg oral, 7 hours after administration", "result": "significantly active"}, {"measurement": "duration of activity", "setting": "NK-1 receptor; administered orally", "result": "exceeds 7 hours"}, {"measurement": "inhibitory activity on vocalization", "setting": "NK-1 receptor; at and below 0.1 mg/kg oral", "result": "retains significant inhibitory activity"}, {"measurement": "inhibition of agonist-induced vocalization", "setting": "NK-1 receptor; oral, 10, 1.0, 0.1 and 0.05 mg/kg (each p<0.001)", "result": "significant inhibition"}, {"measurement": "minimum effective dose (MED), inhibition of vocalization", "setting": "NK-1 receptor; oral, p<0.001 compared to controls", "result": 0.025, "unit": "mg/kg"}, {"measurement": "Total No. Emetic Episodes", "setting": "[1]; 0.3 mg/kg oral", "result": "1**"}, {"measurement": "Total No. Emetic Episodes", "setting": "[1]; 1.0 mg/kg oral", "result": "1**"}, {"measurement": "Total No. Emetic Episodes", "setting": "[1]; 3.0 mg/kg oral", "result": "1**"}, {"measurement": "effect against apomorphine-induced emesis", "setting": "[1]; each dose tested (0.3, 1.0, and 3.0 mg/kg)", "result": "effective"}, {"measurement": "Concentration of tradipitant in plasma, individual dogs", "setting": "[2]; 0.3 mg/kg oral", "result": "0.09093 µg/mL and 0.08338 µg/mL and 0.02259 µg/mL and 0.0512 µg/mL and 0.04133 µg/mL"}, {"measurement": "Concentration of tradipitant in plasma, individual dogs", "setting": "[2]; 1.0 mg/kg oral", "result": "0.24084 µg/mL and 0.10097 µg/mL and 0.06156 µg/mL and 0.17558 µg/mL and 0.08649 µg/mL"}, {"measurement": "Concentration of tradipitant in plasma, individual dogs", "setting": "[2]; 3.0 mg/kg oral", "result": "0.3162 µg/mL and 0.68291 µg/mL and 0.11979 µg/mL and 0.12273 µg/mL and 0.25658 µg/mL"}, {"measurement": "effect on gastric emptying", "setting": "[3]", "result": "No effect"}]}]}
